Source: patent publication US20120270774A1, “MACROCYCLIC COMPOUNDS, COMPOSITIONS COMPRISING THEM AND METHODS FOR PREVENTING OR TREATING HIV INFECTION” (Yissum Research Development Company of the Hebrew …, priority 2009, published 2012)

Columns and labels:
HIV-1 strand HXB2 = assay: HIV-1 infection inhibition, MAGI assay; format: cell-based; settings: for effect on HIV-1 infection (in words): MAGI assay, cultured cells, μM range
Procedure: Hela cells were obtained from ATCC, (Manassas, Va., USA) and then grown in 75 cm2 flasks with approximately 0.5×10^6 cells/flask at 37° C. in 5% CO2 atmosphere and at a relative humidity of 95%. The culture growth medium consisted of Dulbecco's Modified Eagle Medium (DMEM) supplemented with 10% heat-inactivated fetal bovine serum (FBS), 1% nonessential amino acids. The medium was replaced every other day. Titration of HIV-1 strand HXB2 in the absence or presence of the inhibitor was carried out by the multinuclear activation of a galactosidase indicator (MAGI) assay, similarly to the procedure described by Kimpton and […] (Virol. 66, 2232, 1992). Briefly, HeLa-CD4+beta-gal cells were transferred into 96-well plates at 15×10^3 cells per well. On the following day, the cells were infected with 50 μl of serially diluted virus in the presence of […] of DEAE-dextran (Pharmacia, Sweden). Two days post-infection, cultured cells were fixed with 1% formaldehyde and 0.2% glutaraldehyde in PBS. Following intensive wash with PBS, cells were stained with a solution of 4 mM potassium ferrocyanide, 4 mM potassium ferricyanide, 2 mM MgCl2 and 0.4 mg/ml of X-Gal (Ornat, Israel). Blue cells were counted under a light microscope. According to a slightly different procedure, the assay consisted of CD4 expressing Hela P4 cells containing the β-galactosidase reporter gene placed downstream […]. the HIV-LTR promotor. These cells were seeded 24 hours prior to viral infection at a density of 5×10^5 […] in 24 well culture plates (TPP model by Beyneix). 50 μL of virus solution prepared from CEM infected cells' supernatant, were incubated for 1 hour with the assayed peptides at the required concentrations, at 4° C. 10 μg of anti CD4 monoclonal antibodies 13B8.2 or […] were used as control. After incubation the virus solution was diluted to a total volume of 1 ml and was added to the Hela P4 cells. The cells were incubated at these conditions for 3 days after which their infection rate was assayed according to the β-galactosidase activity in the cells extract. The cells were washed well, harvested and disintegrated in a buffer containing 60 mM Na2HPO4, 40 mM NaH2PO4, 10 mM KCl, 1 mM MgSO4, 50 mM β-mercaptoethanol, 2.5 mM EDTA, 0.125% NP40, 0.125% triton, 20% glycerol, 0.2 mM PMSF and 100 U/ml approtinin. The cells extract was cleaned by centrifuge at 4° C. for 15 min at 13,000 rpm. β-galactosidase activity was determined by incubation of 150 μL of total cell extract at 37° C. for 2 hours in the presence of 6 mM ONPG (O-Nitrophenyl-β-D-galactopyranoside) in a buffer containing 80 mM Na2HPO4, 1 mM β-mercaptoethanol and 10 m MMgCl2, followed by absorption measurement at 410 nm. The β-galactosidase activity was normalized according to the total protein quantity in the assay.

human liver microsomes = format: in vitro ADME
Procedure: The oxidative metabolism was evaluated in pooled liver microsomes of rats and humans with or without 3 μM of ketoconazole (CYP3A4 inhibitor) (Yang et al., 2005, Biopharm Drug Dispos 26, 387-402). The microsomes were purchased from BD Biosciences (Woburn, Mass.). […] The incubation mixture (3 ml) was prepared in triplicate for each species in a 0.1 m potassium phosphate buffer (pH 7.4) containing 1 μM of substrate, 0.5 μM CYP enzymes, 1.8 mM glucose-6-phosphate and 0.4 units/ml glucose-6-phosphate dehydrogenase. After a 5 min preincubation at 37° C., the reaction was initiated by adding β-NADPH (0.15 mM final concentration). Aliquots of 0.25 ml were taken at 0, 15 and 30 min and placed into 3 volumes of icecold acetonitrile (containing an internal standard) to terminate the reaction. The samples were vortexed and centrifuged at 10000 RPM for 8 min to collect supernatant for sample analysis.

[1] = Pharmacokinetics of oral CG-1 with or without ritonavir
Procedure: The pharmacokinetic profile of CG-1 was studied following intravenous (IV) and per-os (PO) administration to rats. Studies were performed in conscious Wistar male rats. An indwelling cannula was implanted into the left jugular vein 24 hours before the pharmacokinetic experiment to allow full recovery of the animals from the surgical procedure. Animals (n=5) received an intravenous (IV) bolus dose of 1 mg/kg of CG-1 or 10 mg/kg by oral gavage (n=5), CG-1 was dissolved in water. […] CG-1 administration. Plasma was separated by centrifugation (4000 g, 5 min, 4° C.) and stored at −70° C. pending analysis. A non-compartmental pharmacokinetic approach was used to compare pharmacokinetic profiles obtained following different modes of administration and to calculate bioavailability values. All calculations were performed utilizing WinNonlin® 5.0.1 software (Pharsight Corporation, Mountain View, Calif., USA).
The pharmacokinetic tests were repeated as above with the addition of ritonavir to the oral administration of CG-1. The study included three groups; the first group received 10 mg/kg of CG-1 in aqueous solution, the second one received an emulsion of 10 mg/kg of CG-1 and 10 mg/kg of ritonavir and the third group received CG-1 in the same emulsion without ritonavir.

[2] = system: intestinal brush border enzymes; assay: Brush border membrane vesicles (BBMV) stability; format: in vitro ADME, Wistar rats; settings: incubation in BBMVs at 37° C.
Procedure: Brush border membrane vesicles (BBMVs) were prepared from combined duodenum, jejunum, and upper ileum by a Ca^+2 precipitation method ([…]., 1997., Biochim Biophys Acta 1323, 45-56, […] et al. 2003., Biochem Biophys Res Commun 301, 8-12). The intestines of 5 male Wistar rats, 200-250 gr, were rinsed with ice cold 0.9% NaCl and freed of mucus; the mucosa was scraped off the luminal surface with glass slides and put immediately into buffer containing […] and 10 mM Tris-HCl (pH 7.5, 4° C.) and then homogenated (Polytron PT 1200, Kinematica AG, Switzerland). CaCl2 was added to a final concentration of 10 mM. The homogenate was left shaking for 30 min at 4° C. and then centrifuged at 10,000 g for 10 min. The supernatant was then centrifuged at 48,000 g for 30 min and an additional two purification steps were undertaken by suspending the pellet in 300 mM mannitol and 10 mM Hepes/Tris (pH 7.5) and centrifuging at […]. Purification of brush border membranes was assayed using the brush border membrane enzyme markers gamma-glutamyl transpeptidase (GGT), leucine amino peptidase (LAP) and alkaline phosphatase. During the course of these studies, enrichment in brush border membrane enzymes varied between 13- and 18-fold. The enzymatic reaction was performed as previously reported (Ovadia et al., 2009, Bioorg Med Chem 18, 580-589). […]

[3] = system: pseudo typed viruses that express VSV-gp instead of gp-120; format: cell-based
[4] = Permeability ex-vivo, Ussing side by side diffusion chamber; format: in vitro ADME, Wistar rats; settings: Ussing model
[5] = Pharmacokinetic profile of CG-1 following IV and PO administration
Procedure: Rats were kept in a light-controlled room (light from 7:00 to 19:00) and were maintained on laboratory chow and water ad libitum.
The pharmacokinetic profile of CG-1 was studied following intravenous (IV) and per-os (PO) administration to rats. Studies were performed in conscious Wistar male rats. An indwelling cannula was implanted into the left jugular vein 24 hours before the pharmacokinetic experiment to allow full recovery of the animals from the surgical procedure. Animals (n=5) received an intravenous (IV) bolus dose of 1 mg/kg of CG-1 or 10 mg/kg by oral gavage (n=5), CG-1 was dissolved in water. […] Plasma was separated by centrifugation (4000 g, 5 min, 4° C.) and stored at −70° C. pending analysis. A non-compartmental pharmacokinetic approach was used to compare pharmacokinetic profiles obtained following different modes of administration and to calculate bioavailability values. All calculations were performed utilizing WinNonlin® 5.0.1 software (Pharsight Corporation, Mountain View, Calif., USA).
Non-compartmental pharmacokinetic analysis was performed using WinNonlin software, standard.

[6] = PO 10 mg/kg with RTV 10 mg/kg (emulsion)

N=C(N)NCCCC1NC(=O)CCCCCC(=O)NC(Cc2ccccc2)CN(CC(N)=O)C1=O (centres unmarked) [CG-1]
effect on HIV-1 infection (in words) (HIV-1 strand HXB2): low μM activity
inhibition of viral infection (HIV-1 strand HXB2; low μM range): > 80%
oxidative metabolism in liver microsomes (human liver microsomes): partially metabolized
microsomal stability with ketoconazole (human liver microsomes; human, microsomes): significantly improved its stability
Oral bioavailability [1, 6]: 21±3%
T1/2 [1, 6]: 93 ± 8 min
Tmax [1, 6]: 18 ± 2 min
Oral bioavailability ([1]; PO 10 mg/kg, without ritonavir): 7.3±1.6%
T1/2 ([1]; PO 10 mg/kg, without ritonavir): 73 ± 6 min
Tmax ([1]; PO 10 mg/kg, without ritonavir): 18 ± 1.5 min
Cmax increase when ritonavir was added ([1]; with vs without ritonavir): 3 fold
stability to enzymatic degradation in BBMVs [2]: metabolically stable and is not degraded
infection inhibition of VSV-gp pseudo typed viruses [3]: did not have any effect
permeability coefficient (Papp) ex-vivo compared with the other analogs [4]: significantly higher than the other analogs
transport in the distal regions ([4]; distal regions (ileum, colon)): significantly lower
transport in the jejunum ([4]; jejunum): significantly higher
Cmax ([5]; IV bolus, 1 mg/kg): 102 ± 19 ng/mL
Tmax ([5]; IV bolus, 1 mg/kg): 5 min
Oral bioavailability ([5]; PO 10 mg/kg vs IV 1 mg/kg): ~10%
AUC ([5]; PO, 10 mg/kg oral gavage): 21770 ± 63 ng·min/mL
Cmax ([5]; PO, 10 mg/kg oral gavage): 866 ± 76 ng/mL
Tmax ([5]; PO, 10 mg/kg oral gavage): 18 min
CI ([5]; printed in the PO row): 14.53 ± 0.33 mL/min/kg
Vss ([5]; printed in the PO row): 0.6 L/kg

N=C(N)NCCCC1NC(=O)CCCCCC(=O)NC(Cc2ccc(O)cc2)CN(CC(N)=O)C1=O (centres unmarked) [MC-1]
effect on HIV-1 infection (in words) (HIV-1 strand HXB2): did not reduce the infectivity

N=C(N)NCCCC1CN(CC(N)=O)C(=O)C(Cc2ccccc2)NC(=O)CCCCCC(=O)N1 (centres unmarked) [SC-1]
effect on HIV-1 infection (in words) (HIV-1 strand HXB2): weak inhibitory effect
